Measurements taken from PMC6212778, “Site-specific amino acid substitution in dodecameric peptides determines the stability and unfolding of c-MYC quadruplex promoting apoptosis in cancer cells” (Nucleic Acids Research, 2018).

Tests used:
[1] = tested on: KR12C (synthetic, derived from human LL37); experiment: ITC; settings: ITC: 10 mM potassium phosphate pH 7.0, 100 mM KCl, 25 C, 20 uM peptide in cell, 500 uM G4 DNA in syringe, one-site fit. NMR: same buffer, 10% D2O, NOESY at …; for binding signal (fold lower affinity than c-MYC G4): 100 mM KCl, fold order read as BCL-2 then telomere
[2] = tested on: KR12C (synthetic, derived from human LL37); experiment: CD melting; settings: ITC: 10 mM potassium phosphate pH 7.0, 100 mM KCl, 25 C; 20 uM peptide in cell, 500 uM G4 DNA in syringe; one-site fit. NMR: same buffer, 10% D2O, NOESY at …
[3] = tested on: VEGF-A promoter (VEGF-A-GQ) in MCF-7 cells; experiment: Dual-luciferase assay, VEGF-A promoter with VEGF-A-GQ; type: cell-based, human; settings: MCF-7, 24 h, peptide 0–60 μM
Protocol: (§1) MCF-7 cells are sub-cultured into 24-well microtiter plates at a cell density of 1 × 10^5 cells/well. Reporter constructs (c-MYC, BCL-2, KRAS and VEGF-A) (500 ng) with and/or without the G-quadruplex scaffolds triggering the expression of Renilla luciferase are co-transfected with 50 ng of pGL3-control vectors (Promega) (used as internal control), encoding firefly luciferase into MCF-7 cells using Lipofectamine® 3000 transfection reagent (Thermo-Fisher Scientific) following manufacturer's recommendations (Supplementary information Section 1). Twenty four hours post-transfection, cells are treated with peptides (FK13, KR12A, KR12B, KR12C, KR12D and KR12E) at an increasing concentration gradient.
(§2) Dual-luciferase assays are performed to examine the intracellular selectivity of peptides for c-MYC quadruplex isomers (Pu27, Myc22 and Pu19) over other oncogenic quadruplexes (BCL-2, VEGF-A and KRAS) of different topologies. The role of peptide-quadruplex complex in oncogene promoter activation is investigated in contrast to the GQ-null promoter constructs into MCF-7 cells ([67]). After 24 h of peptide treatment, cells are washed and lysed into 100 μl 1× Passive lysis buffer (PLB) for 15 min at room temperature. Renilla and firefly Luciferase activities in 25 μl lysate are quantified by Dual-Luciferase® reporter assay system (Promega) as per manufacturer's recommendations. Renilla luciferase enzyme activity is normalized to that of the firefly luciferase activity and luminescence of the peptide-treated samples are normalized to the untreated ones, which yield the fold induction values for Renilla activities by different quadruplex structures in presence and absence of synthetic peptides. Luminescence of each sample is detected in GloMax® 20/20 Single-Tube Luminometer (Promega) in triplicates and averaged from three independent experiments.

[4] = tested on: KRAS promoter (KRAS-GQ) in MCF-7 cells; experiment: Dual-luciferase assay, KRAS promoter with KRAS-GQ; type: cell-based, human; settings: MCF-7, 24 h
Protocol: as §1, §2

[5] = tested on: BCL-2 promoter (BCL-2-GQ) in MCF-7 cells; experiment: Dual-luciferase assay, BCL-2 promoter with BCL-2-GQ; type: cell-based, human; settings: MCF-7, 24 h, peptide 0–60 μM
Protocol: as §1, §2

[6] = tested on: c-MYC promoter with Pu19 isomer in MCF-7 cells; experiment: Dual-luciferase assay, c-MYC promoter under control of Pu19; type: cell-based, human; settings: MCF-7, 24 h peptide treatment
Protocol: as §1, §2

[7] = tested on: c-MYC quadruplex Pu27; experiment: CD melting of free and peptide-bound Pu27; type: binding, human
Protocol: To understand the role of peptides (FK13, KR12A, KR12B, KR12C, KR12D and KR12E) in stabilizing native and truncated isomers of c-MYC G-quadruplex, we have performed temperature-driven CD melting experiments for free and peptide-bound complexes in JASCO-J815 CD spectrometer. We have gradually titrated the peptides into 10 μM of putative quadruplexes and acquired the spectra after 5 min of peptide addition to allow complex formation and equilibration. Samples are heated from 20 to 95°C having the temperature gradient and the delay time of 2.5°C/min and 150 s respectively. Since the quadruplexes unfold at higher temperatures and revert back to their initial conformations upon renaturation, we have assumed a ‘two-state transition’ model (folded and unfolded) to analyze the melting curves and estimated the melting temperatures (Tm) by fitting the data points into sigmoidal curves (Supplementary information Section 1).

[8] = tested on: c-MYC promoter (Pu27-GQ) in MCF-7 cells; experiment: Dual-luciferase assay, c-MYC promoter with Pu27-GQ; type: cell-based, human; settings: MCF-7, 24 h, peptide 0–60 μM
Protocol: as §1, §2

[9] = tested on: c-MYC promoter with Myc22 isomer in MCF-7 cells; experiment: Dual-luciferase assay, c-MYC promoter under control of Myc22; type: cell-based, human; settings: MCF-7, 24 h peptide treatment
Protocol: as §1, §2

[10] = tested on: native c-MYC quadruplex (Pu27); experiment: ITC of peptides with native c-MYC quadruplex Pu27 in potassium phosphate buffer; type: binding, human; settings: 25°C, 20 μM peptide in cell, 500 μM Pu27 in syringe, 10 mM potassium phosphate, 0.1 M KCl, pH 7.0, one-site model
Protocol: The putative wild-type and truncated G-quadruplex forming sequences (Table 2 and Supplementary Table S1), located at the upstream of c-MYC promoter are reconstituted in 10 mM Potassium Phosphate buffer (pH 7.0) having 100 mM potassium chloride (KCl). The sequences are allowed to evolve G-quadruplex structure in solution by annealing at 95°C followed by gradual cooling. (Supplementary information Section 1).
Thermodynamic attributes of the interaction profiles between peptides and putative quadruplex sequences are analysed by ITC using iTC200 Microcalorimeter at 25°C. Synthetic peptides (FK13, KR12A, KR12B, KR12C, KR12D and KR12E) are diluted to 20 μM in 10 mM Potassium phosphate buffer (10 mM K2HPO4 + 10 mM KH2PO4) containing 0.1 M KCl (pH 7.0). Syringe is filled with 500 μM quadruplex sequences present in the upstream promoter regions of c-MYC (Pu27, Pu19, and Myc22), BCL-2 (Pu30), VEGF-A (Pu22), KRAS (Pu32) oncogenes, and telomere (Tel26) dissolved into the same buffer. We also carried out the experiment for KR12C and Pu27 using MCF-7 nuclear extract as the solvent to mimic the cellular microenvironment and impart macromolecular crowding during binding events. Same concentration of oligonucleotides is injected into the identical buffer or in nuclear extract without peptides to normalize the heat of dilution of peptide-quadruplex association to that of the control before curve-fitting. Oligonucleotides are injected 20 times at an interval of 150 s into the calorimeter cell having the peptides to achieve binding saturation. The heat of reaction per injection (μcal/s) is determined by integration of the peak areas using in-built Origin 7.0 software that provides the best-fit values of enthalpy (ΔH) and entropy (ΔS) of binding, the binding stoichiometry (n), and dissociation constant (Kd) (Supplementary Tables S5(a), S5(b) and S5(c)). Data points are further simulated with ‘one-site’ binding modes (Supplementary information Section 1).

[11] = tested on: KR12E (synthetic, derived from human LL37); experiment: CD melting; settings: destabilizes; ITC: 10 mM potassium phosphate pH 7.0, 100 mM KCl, 25 C; 20 uM peptide in cell, 500 uM G4 DNA in syringe; one-site fit. NMR: same buffer, 10% D2O, NOESY at …
[12] = tested on: KR12A (synthetic, derived from human LL37); experiment: CD melting; settings: destabilizes; ITC: 10 mM potassium phosphate pH 7.0, 100 mM KCl, 25 C; 20 uM peptide in cell, 500 uM G4 DNA in syringe; one-site fit. NMR: same buffer, 10% D2O, NOESY at …
[13] = tested on: KR12E (synthetic, derived from human LL37); experiment: ITC; settings: ITC: 10 mM potassium phosphate pH 7.0, 100 mM KCl, 25 C; 20 uM peptide in cell, 500 uM G4 DNA in syringe; one-site fit. NMR: same buffer, 10% D2O, NOESY at …
[14] = tested on: KR12B (synthetic, derived from human LL37); experiment: ITC; settings: ITC: 10 mM potassium phosphate pH 7.0, 100 mM KCl, 25 C; 20 uM peptide in cell, 500 uM G4 DNA in syringe; one-site fit. NMR: same buffer, 10% D2O, NOESY at …
[15] = tested on: KR12D (synthetic, derived from human LL37); experiment: ITC; settings: ITC: 10 mM potassium phosphate pH 7.0, 100 mM KCl, 25 C; 20 uM peptide in cell, 500 uM G4 DNA in syringe; one-site fit. NMR: same buffer, 10% D2O, NOESY at …
[16] = tested on: KR12A (synthetic, derived from human LL37); experiment: ITC; settings: ITC: 10 mM potassium phosphate pH 7.0, 100 mM KCl, 25 C; 20 uM peptide in cell, 500 uM G4 DNA in syringe; one-site fit. NMR: same buffer, 10% D2O, NOESY at …
[17] = target: T1, FK13 (LL37-derived peptide) (Homo sapiens (synthetic, derived from …, UniProt P49913 150-162)); experiment: ITC; 100 mM KCl; ITC: 10 mM potassium phosphate pH 7.0, 100 mM KCl, 25 C; 20 uM peptide in cell, 500 uM G4 DNA in syringe; one-site fit. NMR: same buffer, 10% D2O, NOESY at 15 C; settings: G4, unimolecular
T1 chain: FKRIVQRIKDFLR

## BCL-2 Pu30 quadruplex
[1]
  binding signal (fold lower affinity than c-MYC G4): 3

## GGAGGGTGGGGAGGGTGGGGAA [Myc22]
[2]
  binding signal (delta Tm, deg C): 6.91

## N – KRIVKRIKKWLL – C [KR12E, dodecameric mutant peptide derived from FK13 / LL37]
[3]
  VEGF-A promoter activity: no significant effects
[4]; peptide 0–60 μM
  KRAS promoter activity: no significant effects
[5]
  BCL-2 promoter activity: no significant effects
[6]
  c-MYC promoter activation under control of Pu19: no regulatory effect
[7]; 10 μM quadruplex, two-state model
  decrease of the Tm of Pu27 upon peptide binding: ~30 °C
[8]
  c-MYC promoter activity: no significant effects
[9]
  c-MYC promoter activation under control of Myc22: no regulatory effect
[10]
  K A: 18800 M⁻¹
  Kd: 53.2 µM
  ΔG (binding energy): -5.89 kcal/mol
  ΔH (binding enthalpy): -168 kcal/mol
  ΔS (entropy): −544 cal/mol/deg

## N – KRIVKVIKKWLR – C [KR12D, dodecameric mutant peptide derived from FK13 / LL37]
[3]
  VEGF-A promoter activity: no significant effects
[4]; at higher concentration
  KRAS promoter activity, fold inhibition: ~1.6 fold
[5]
  BCL-2 promoter activity: no significant effects
[6]
  c-MYC promoter activation under control of Pu19: no regulatory effect
[7]
  effect on thermal stability of Pu27: did not significantly induce thermal stability
[8]
  c-MYC promoter activity: no significant effects
[9]
  c-MYC promoter activation under control of Myc22: no regulatory effect
[10]
  K A: 20400 M⁻¹
  Kd: 49 µM
  ΔG (binding energy): -5.774 kcal/mol
  ΔH (binding enthalpy): -136 kcal/mol
  ΔS (entropy): −437 cal/mol/deg

## TGGGGAGGGTGGGGAGGGT [Pu19]
[2]
  binding signal (delta Tm, deg C): 10.9

## TGGGGAGGGTGGGGAGGGTGGGGAAGG [Pu27 c-MYC quadruplex]
[2]
  binding signal (delta Tm, deg C): 9
[11]
  binding signal (delta Tm, deg C): -30
[12]
  binding signal (delta Tm, deg C): -30
[1]
  Kd: 8.06 µM
[1]; MCF-7 nuclear extract as solvent (crowding)
  Kd: 0.901 µM
[13]
  Kd: 53.2 µM
[14]
  Kd: 37.3 µM
[15]
  Kd: 49 µM
[16]
  Kd: 61.7 µM

## Tel26 telomeric quadruplex
[1]
  binding signal (fold lower affinity than c-MYC G4): 4

B1: Pu27 c-MYC quadruplex (structured_DNA)
DNA: TGGGGAGGGTGGGGAGGGTGGGGAAGG
[17]
  Kd: 34.6 µM
